{"source": "paper PMC8583417", "about": "“Evaluation of the Antimicrobial Efficacy of N-Acetyl-L-Cysteine, Rhamnolipids, and Usnic Acid—Novel Approaches to Fight Food-Borne Pathogens” (International Journal of Molecular Sciences, 2021)", "key": {"[1]": {"tested_on": "E. coli 683/17", "assay": "CLSM analysis, biofilm removal (preformed biofilm)", "type": "cell-based, Escherichia coli", "conditions": "for Thickness (µm) subCBM80: substance at subinhibitory concentration", "method": "(§1) Biofilm prevention and removal analyses were performed using previously determined minimum inhibitory and subinhibitory concentrations for metabolic activity (MICBM80, subCBM80; MICMPB80, subCMPB80) of NAC, RLs, and UA specific for each tested strain. Selected concentrations were used to evaluate the inhibition of biofilm formation (biofilm prevention) and the reduction in previously formed biofilms (biofilm removal) for the same set of microorganisms, with the exception of S. Infantis, which was excluded from the analysis due to its inability to form biofilm in the selected microtiter plate. Biofilm prevention and removal were observed using CLSM with specific staining to distinguish between live and membrane-compromised cells. Images were analyzed to evaluate (i). the total volume of the biomass, (ii). ratios of live and membrane-compromised cells, and (iii). to calculate biofilm volume reduction for individual organisms after the respective treatment types. The total biofilm volume was normalized by the area of the well and expressed as an average biofilm thickness. Complete data are provided in Supplementary Materials (Tables S1–S8).\n(§2) At first, bacterial suspensions were cultivated in microtiter plates to produce overnight biofilms (18 h). […] cells were then washed out, and the remaining biofilms were further cultivated for an additional 20 h with selected compounds. Following biofilm cultivation, biomass was observed using CLSM with live/membrane-compromised cell staining. Biomass images from biofilm removal treatments were similar to results from biofilm prevention, where biomass was highly diversified across the bacterial species and strains. Visually, biomass images were fairly consistent within the quadruplicates for each tested organism. Non-treated biofilms of S. aureus contained consistent biomass spread across the well (S. aureus 816) or grown around the edges (S. aureus 1241). […] PI staining identified membrane-compromised cells spread across S. aureus 816 biomass and incorporated in the edge of biomass and/or in the central part of the well (Figure 4B,C). […] Membrane-compromised cells appeared contained around the edges (S. aureus 1241), disturbed across the well (in both strains of L. monocytogenes), or in separated biomass in the central part of the well (in both strains of E. coli when treated with the subinhibitory concentration of RLs) (Figure 4D,E).\n(§3) For both inhibition and reduction of biofilms, overnight cultures from BHI were diluted in TSB + 1% Glc to reach an absorbance of 0.08 to 0.1 at 625 nm. The inoculum (150 µL) was transferred into wells of the 96-well flat-bottomed Ibidiμ-Plate (Ibidi, Gräfelfing, Germany) and mixed with 150 µL of each of the three tested substances in technical quadruplicates, followed by incubation at 37 °C for 24 h. Simultaneously, the prepared bacterial suspensions were inoculated to an additional microtiter plate (200 µL) and allowed to form biofilm overnight (18 h at 37 °C). After the incubation, the content of the well was drained off, and 200 µL of each of the three tested substances was added to the plate, which was then incubated for an additional 20 h. The used concentrations of the substances represented the subinhibitory and minimum inhibitory concentrations for metabolic activity (subCBM80, MICBM80; subCMPB80, MICMPB80). Both setups contained a positive control of the bacterial growth (inoculum mixed with sterile TSB + 1% Glc medium) and a control monitoring microbial contamination (sterile medium). Non-treated wells were used as a positive control for comparison between non-treated and treated biofilm mass.\n(§4) Prior to the imaging, the wells were stained with the LIVE/DEAD® BacLight™ Bacterial Viability Kit (Thermo Fisher Scientific, MA, USA) following the manufacturer’s guidelines and Drago et al.. […]"}, "[2]": {"tested_on": "E. coli 693/17", "assay": "CLSM analysis, biofilm removal (preformed biofilm)", "type": "cell-based, Escherichia coli", "conditions": "for Thickness (µm) subCBM80: substance at subinhibitory concentration", "method": "as §1, §2, §3, §4"}, "[3]": {"tested_on": "E. coli 683/17", "assay": "MIC for biofilm formation (crystal violet staining)", "type": "cell-based, Escherichia coli", "conditions": "for MICBF80: ≥80% prevention, 24 h", "method": "(§5) Ten concentrations of NAC, RLs, and UA were tested to determine the minimum inhibitory concentration for planktonic growth, and subsequently, the six highest concentrations were applied on preformed biofilms to evaluate the biofilm eradication ability of the compounds. MIC was defined as the lowest substance concentration able to inhibit at least 80% of microbial growth (MICPC80 for planktonic cells, MICBC80 for further growth of biofilm cells), inhibit 80% of metabolic activity (MICBM80 for biofilm metabolic activity, MICMPB80 for metabolic activity of preformed biofilm), prevent biofilm formation by at least 80% (MICBF80 for biofilm formation), or reduce a preformed biofilm by at least 80% (MICBR80 for biofilm reduction). The results of MICs are summarized in Table 1 (planktonic cells) and Table 2 (biofilm-associated cells).\n(§6) The determination of MICs was performed according to Chlumsky et al.. Briefly, 96-well flat-bottomed microtiter plates were inoculated with 75 µL (for biofilm formation) or 100 µL (for preformed biofilm) of bacterial suspension (A625nm 0.08 to 0.1) in technical triplicates and were then carefully mixed with the dilution series of the test substances (24 h cultivation at 25 °C for S. Infantis, 37 °C for other strains) or were directly cultivated to preform biofilms (18 h). For a positive control of bacterial growth, the inoculum was mixed with a pure sterile medium. Furthermore, the sterile medium was included in the plate as a marker of potential microbial contamination. To evaluate planktonic cells growth (MICPC80) and further growth of biofilm cells (MICBC80), the optical density of the content of the microtiter plates was measured spectrophotometrically at 625 nm before and after 24 h (for biofilm formation) of cultivation or before and after additional 20 h incubation with the tested compound (for preformed biofilm). The difference of A625nm was considered as a measure of the ability of cells to grow in the presence of the tested substances. To evaluate the inhibition of biofilm formation (MICBF80) and reduction in preformed biofilms (MICBR80), biomass was quantified using crystal violet staining, and its metabolic activity (MICBM80 and MICMPB80) was estimated by using the MTT (thiazyl tetrazolium bromide, Sigma-Aldrich, USA) reduction assay, both measured spectrophotometrically at 595 nm.\n(§7) All inhibitions were calculated using the formula of Chlumsky et al. below (Equation (1)):(1) A625(595)nm inhibition (%)=A625(595)nm (control) – A625(595)nm(natural substance)/A625(595)nm (control)× 100 where A625(595)nm (control) is the absorbance of bacterial suspension/biofilm itself, and A625(595)nm(natural substance) is the absorbance of the bacterial suspension/biofilm with the added natural substance (NAC, RLs, and UA).\n(§8) When the minimum inhibitory concentration could not be determined, the MIC was established as >the highest tested concentration for NAC, RLs, and UA."}, "[4]": {"tested_on": "E. coli 693/17", "assay": "MIC for biofilm formation (crystal violet staining)", "type": "cell-based, Escherichia coli", "conditions": "for MICBF80: ≥80% prevention, 24 h", "method": "as §5, §6, §7, §8"}, "[5]": {"tested_on": "S. aureus 1241", "assay": "MIC for metabolic activity of preformed biofilm (MTT reduction assay)", "type": "cell-based, Staphylococcus aureus", "conditions": "≥80% inhibition, 20 h with substance", "method": "as §5, §6, §7, §8"}, "[6]": {"tested_on": "S. aureus 816", "assay": "MIC for metabolic activity of preformed biofilm (MTT reduction assay)", "type": "cell-based, Staphylococcus aureus", "conditions": "for MICMPB80: ≥80% inhibition, 20 h with substance", "method": "as §5, §6, §7, §8"}, "[7]": {"conditions": "preformed biofilm, 20 h exposure, substance at its MIC, mean ± SD"}, "[8]": {"conditions": "preformed biofilm, 20 h exposure, mean ± SD"}, "[9]": {"conditions": "20 h, subinhibitory concentration"}}, "data": [{"compound": "CC(=O)N[C@@H](CS)C(=O)O", "note": "[NAC, N-Acetyl-L-cysteine]", "values": [{"measurement": "Thickness (µm) MICBM80", "setting": "[1]; [7]", "value": "153 ± 33.3", "unit": "µm"}, {"measurement": "Thickness (µm) subCBM80", "setting": "[1]; [8]", "value": "128 ± 31.6", "unit": "µm"}, {"measurement": "Thickness (µm) MICBM80", "setting": "[2]; [7]", "value": "222 ± 68.8", "unit": "µm"}, {"measurement": "Thickness (µm) subCBM80", "setting": "[2]; [8]", "value": "181 ± 33.7", "unit": "µm"}, {"measurement": "MICBF80", "setting": "[3]", "value": 6250, "unit": "µg/mL"}, {"measurement": "MICBF80", "setting": "[4]", "value": 6250, "unit": "µg/mL"}, {"measurement": "MICMPB80", "setting": "[5]", "value": 6250, "unit": "µg/mL"}, {"measurement": "MICMPB80", "setting": "[6]", "value": "12,500 µg/mL"}]}, {"compound": "CC(=O)c1c(O)c(C)c(O)c2c1OC1=CC(=O)C(C(C)=O)C(=O)C12C", "note": "(single isomer, unassigned; (+)) [UA, (+)-usnic acid]", "values": [{"measurement": "proportion of membrane-compromised cells", "setting": "[1]; [9]", "value": "up to 40%"}, {"measurement": "Thickness (µm) subCBM80", "setting": "[1]; [8]", "value": "285 ± 38.5", "unit": "µm"}, {"measurement": "proportion of membrane-compromised cells", "setting": "[2]; [9]", "value": "up to 40%"}, {"measurement": "Thickness (µm) subCBM80", "setting": "[2]; [8]", "value": "254 ± 81.8", "unit": "µm"}, {"measurement": "maximal achieved inhibition (MICBF80 not reached)", "setting": "[3]; within tested concentrations", "value": 10, "unit": "%"}, {"measurement": "MICBF80", "setting": "[3]", "value": "> 31.3", "unit": "µg/mL"}, {"measurement": "maximal achieved inhibition (MICBF80 not reached)", "setting": "[4]; within tested concentrations", "value": 47, "unit": "%"}, {"measurement": "MICBF80", "setting": "[4]", "value": "> 31.3", "unit": "µg/mL"}, {"measurement": "MICMPB80", "setting": "[5]", "value": 3.91, "unit": "µg/mL"}, {"measurement": "maximal achieved inhibition (MICMPB80 not reached)", "setting": "[6]; within tested concentrations", "value": 67, "unit": "%"}, {"measurement": "MICMPB80", "setting": "[6]", "value": "> 31.3", "unit": "µg/mL"}]}]}
